Experimental findings from PubChem BioAssay AID342 (DTP/NCI, 2004) are described below.

The test system of the test is Swiss mice, Sarcoma 180 sc, mean tumor weight T/C. Briefly: NCI In Vivo Anticancer Drug Screen. Data for tumor model Sarcoma 180 (subcutaneous) in Swiss mice. The note with it: endpoint: mean tumor weight, higher = larger tumour. How it is done: The antitumor activity of compounds was measured in mice bearing transplantable tumors. Survival or tumor size were measured and the results are expressed as the measurement made in the treated group (T) divided by the measurement made in the vehicle treated control group (C). The tumor model used in this assay is Sarcoma 180 (subcutaneous) in Swiss mice

[1] abbreviates: dose: 500.0 mg/kg/injection, schedule: Q01DX007 (ip), vehicle: saline.
Setting [2] is: dose: 125.0 mg/kg/injection, schedule: Q01DX007 (ip), vehicle: saline.

Several values for one entry are separate records, joined by “and”; a condition that tells them apart may be missing. Equal entries are not always repeated.

A word on the T/C: it is the result in the treated group divided by that in the control group, in per cent. As for `CCN(CC)c1ccc2cc3ccc(=[N+](CC)CC)cc-3oc2c1`, the T/C runs as follows: (dose: 0.42 mg/kg/injection, schedule: Q#A X014 (ip), vehicle: carboxymethylcellulose (CMC)) 84 % of control; (dose: 0.83 mg/kg/injection, schedule: Q#A X014 (ip), vehicle: carboxymethylcellulose (CMC)) 106 % of control; (dose: 1.67 mg/kg/injection, schedule: Q#A X014 (ip), vehicle: carboxymethylcellulose (CMC)) 82 % of control; (dose: 3.35 mg/kg/injection, schedule: Q#A X014 (ip), vehicle: carboxymethylcellulose (CMC)) 73 % of control; (dose: 6.25 mg/kg/injection, schedule: Q01DX007 (ip), vehicle: other) 111 % of control; (dose: 12.5 mg/kg/injection, schedule: Q01DX007 (ip), vehicle: other) 98 % of control.

As for `CCCCOC(=O)C1(N)CCCC1`, the T/C was 72 % of control (dose: 60.0 mg/kg/injection, schedule: Q01DX007 (ip), vehicle: carboxymethylcellulose (CMC)); 72 % of control (dose: 90.0 mg/kg/injection, schedule: Q01DX007 (ip), vehicle: carboxymethylcellulose (CMC)); 33 % of control (dose: 135.0 mg/kg/injection, schedule: Q01DX007 (ip), vehicle: carboxymethylcellulose (CMC)); 54 % of control (dose: 148.0 mg/kg/injection, schedule: Q01DX007 (ip), vehicle: saline); 12 % of control (dose: 200.0 mg/kg/injection, schedule: Q01DX007 (ip), vehicle: carboxymethylcellulose (CMC)); 33 % of control (dose: 202.0 mg/kg/injection, schedule: Q01DX007 (ip), vehicle: carboxymethylcellulose (CMC)). Further, the T/C was 33 % of control (dose: 225.0 mg/kg/injection, schedule: Q01DX007 (ip), vehicle: saline) and 11 % of control (dose: 336.0 mg/kg/injection, schedule: Q01DX007 (ip), vehicle: saline).

On to `CS(=O)(=O)OCC(O)C(O)COS(C)(=O)=O` (centres undefined), for which the T/C was 74 % of control (dose: 125.0 mg/kg/injection, schedule: Q01DX007 (ip), vehicle: carboxymethylcellulose (CMC)); 65 % of control (dose: 250.0 mg/kg/injection, schedule: Q01DX007 (ip), vehicle: carboxymethylcellulose (CMC)); 51 % of control (dose: 500.0 mg/kg/injection, schedule: Q01DX007 (ip), vehicle: carboxymethylcellulose (CMC)); 45 % of control (dose: 1000.0 mg/kg/injection, schedule: Q01DX007 (ip), vehicle: carboxymethylcellulose (CMC)).

For the molecule `COc1ccc(-c2cc(=O)c3c(O)cc(OC)cc3o2)cc1`, the T/C (dose: 220.0 mg/kg/injection, schedule: Q01DX007 (ip), vehicle: saline) was 76 % of control; the T/C (dose: 330.0 mg/kg/injection, schedule: Q01DX007 (ip), vehicle: saline) was 66 % of control; the T/C under setting [1] was 81 % of control.

With `Cc1n[nH]c(=O)[nH]c1=O`, the T/C (dose: 500.0 mg/kg/injection, schedule: Q01DX007 (ip), vehicle: other) is 95 % of control and the T/C (dose: 750.0 mg/kg/injection, schedule: Q01DX007 (ip), vehicle: other) is 83 % of control.

As to `CC(CNC(=O)CCBr)NC(=O)CCBr` (centres undefined), the T/C is 48 % of control and 64 % of control (dose: 110.0 mg/kg/injection, schedule: Q01DX007 (ip), vehicle: carboxymethylcellulose (CMC)); 48 % of control (dose: 167.8 mg/kg/injection, schedule: Q01DX007 (ip), vehicle: carboxymethylcellulose (CMC)); 34 % of control (dose: 168.0 mg/kg/injection, schedule: Q01DX007 (ip), vehicle: carboxymethylcellulose (CMC)).

In the case of `C[N+]1(CCC[N+]2(C)C[C@@H]3[C@H](C2)[C@@H]2C=C[C@H]3C2)CCOCC1` (some centres undefined), the T/C by setting is: under setting [2], 95 % of control; under setting [1], 111 % of control.

Turning to `O=C(O)Cc1c[nH]c2ccccc12`, the T/C by setting is: (dose: 31.3 mg/kg/injection, schedule: Q01DX007 (ip), vehicle: saline) 64 % of control; (dose: 62.5 mg/kg/injection, schedule: Q01DX007 (ip), vehicle: saline) 71 % of control; under setting [2], 52 % of control; (dose: 250.0 mg/kg/injection, schedule: Q01DX007 (ip), vehicle: saline) 95 % of control.

As for `O=C1c2ccccc2C(=O)c2c1ccc1c2[nH]c2ccccc21`, the T/C (dose: 82.0 mg/kg/injection, schedule: Q01DX007 (ip), vehicle: saline) was 48 % of control; the T/C under setting [2] was 50 % of control; the T/C (dose: 187.0 mg/kg/injection, schedule: Q01DX007 (ip), vehicle: saline) is 23 % of control; the T/C (dose: 280.0 mg/kg/injection, schedule: Q01DX007 (ip), vehicle: saline) was 42 % of control.

For `COc1ccc2c3c([nH]c2c1)[C@H]1C[C@H]2[C@H](C[C@@H](O)[C@H](OC)[C@H]2CO)CN1CC3`, the T/C (dose: 0.5 mg/kg/injection, schedule: Q01DX007 (ip), vehicle: saline) is 120 % of control; the T/C (dose: 1.0 mg/kg/injection, schedule: Q01DX007 (ip), vehicle: saline) is 121 % of control; the T/C (dose: 2.0 mg/kg/injection, schedule: Q01DX007 (ip), vehicle: saline) was 95 % of control; the T/C (dose: 4.0 mg/kg/injection, schedule: Q01DX007 (ip), vehicle: saline) is 94 % of control; the T/C (dose: 8.0 mg/kg/injection, schedule: Q01DX007 (ip), vehicle: saline) was 102 % of control; the T/C (dose: 16.0 mg/kg/injection, schedule: Q01DX007 (ip), vehicle: saline) was 77 % of control. Further, the T/C (dose: 32.0 mg/kg/injection, schedule: Q01DX007 (ip), vehicle: saline) is 102 % of control.

In the case of `COC1=C(N)C(=O)c2nc(-c3nc(C(=O)O)c(C)c(-c4ccc(OC)c(OC)c4O)c3N)ccc2C1=O`, the T/C was 66 % of control (dose: 0.02 mg/kg/injection, schedule: Q01DX007 (ip), vehicle: water); 70 % of control (dose: 0.05 mg/kg/injection, schedule: Q01DX007 (ip), vehicle: water); 61 % of control (dose: 0.05 mg/kg/injection, schedule: Q#A X014 (ip), vehicle: alkali diluted with CMC); 37 % of control (dose: 0.09 mg/kg/injection, schedule: Q01DX007 (ip), vehicle: other); 53 % of control and 54 % of control (dose: 0.1 mg/kg/injection, schedule: Q01DX007 (ip), vehicle: water); 52 % of control (dose: 0.1 mg/kg/injection, schedule: Q#A X014 (ip), vehicle: alkali diluted with CMC). Moreover, the T/C reads like this: (dose: 0.13 mg/kg/injection, schedule: Q01DX007 (ip), vehicle: other) 83 % of control; (dose: 0.2 mg/kg/injection, schedule: Q01DX007 (ip), vehicle: other) 73 % of control; (dose: 0.2 mg/kg/injection, schedule: Q01DX007 (ip), vehicle: water) 48 % of control; (dose: 0.2 mg/kg/injection, schedule: Q#A X014 (ip), vehicle: alkali diluted with CMC) 65 % of control; (dose: 0.25 mg/kg/injection, schedule: Q01DX007 (ip), vehicle: water) 27 % of control; (dose: 0.3 mg/kg/injection, schedule: Q01DX007 (ip), vehicle: other) 54 % of control.

Regarding `[O]=[V]`, the T/C (dose: 7.5 mg/kg/injection, schedule: Q01DX007 (sc), vehicle: olive oil, sesame oil, peanut oil) was 94 % of control; the T/C (dose: 15.0 mg/kg/injection, schedule: Q01DX007 (sc), vehicle: olive oil, sesame oil, peanut oil) was 89 % of control; the T/C (dose: 30.0 mg/kg/injection, schedule: Q01DX007 (sc), vehicle: olive oil, sesame oil, peanut oil) was 100 % of control.

Turning to `CC(C)CC(C#N)C(N)=O` (centres undefined), the T/C (dose: 7.5 mg/kg/injection, schedule: Q01DX007 (ip), vehicle: methylcellulose (MC)) is 108 % of control and the T/C (dose: 30.0 mg/kg/injection, schedule: Q01DX007 (ip), vehicle: methylcellulose (MC)) was 96 % of control.

`CO[C@@]12[C@H](COC(N)=O)C3=C(C(=O)C(C)=C(N)C3=O)N1C[C@@H]1N[C@@H]12`: the T/C (dose: 0.12 mg/kg/injection, schedule: Q#A X014 (ip), vehicle: carboxymethylcellulose (CMC)) was 113 % of control; the T/C (dose: 0.25 mg/kg/injection, schedule: Q#A X014 (ip), vehicle: carboxymethylcellulose (CMC)) was 73 % of control; the T/C (dose: 0.5 mg/kg/injection, schedule: Q#A X014 (ip), vehicle: carboxymethylcellulose (CMC)) was 57 % of control; the T/C (dose: 1.5 mg/kg/injection, schedule: Q#A X014 (ip), vehicle: carboxymethylcellulose (CMC)) was 39 % of control; the T/C (dose: 2.0 mg/kg/injection, schedule: Q#A X014 (ip), vehicle: carboxymethylcellulose (CMC)) was 17 % of control; the T/C (dose: 262.0 micrograms/kg/injection, schedule: Q01DX007 (ip), vehicle: carboxymethylcellulose (CMC)) is 69 % of control. Besides, the T/C by setting is: (dose: 525.0 micrograms/kg/injection, schedule: Q01DX007 (ip), vehicle: carboxymethylcellulose (CMC)) 98 % of control; (dose: 1050.0 micrograms/kg/injection, schedule: Q01DX007 (ip), vehicle: carboxymethylcellulose (CMC)) 84 % of control; (dose: 2100.0 micrograms/kg/injection, schedule: Q01DX007 (ip), vehicle: carboxymethylcellulose (CMC)) 49 % of control.
